Measurements taken from patent US5952320A, “Macrocyclic inhibitors of matrix metalloproteinases and TNFα secretion” (Abbott Laboratories, priority 1997, dated 1999).

Molecular target: T1, Recombinant truncated stromelysin (human sequence) (Homo sapiens, UniProt P08254)
T1 construct: made in house; host or cells: E. coli
Assay: Determination of Stromelysin Inhibition (cleavage of thiopeptide ester substrate, DTNB, 405 nm)
Assay type: biochemical
Details: not given
Experimental: The efficacy of the compounds of this invention as matrix metalloproteinase inhibitors was determined by measuring the inhibition of stromelysin. The inhibition of stromelysin by the compounds of this invention was determined as follows: Recombinant truncated stromelysin (human sequence) produced in E. coli was prepared by expression and purification of the protein as described by Ye et al., Biochemistry, 1992, 31, 11231-11235. The enzyme was assayed by its cleavage of the thiopeptide ester substrate Ac-Pro-Leu-Gly-[2-mercapto-4-methyl-pentanoyl]-Leu-Gly-OEt described by Weingarten and Feder, Anal. Biochem., 1985, 147, 437-440 (1985), as a substrate of vertebrate collagenase. The reported conditions were modified to allow assays to be carried out in a microtiter plate. Upon hydrolysis of the thioester bond, the released thiol group reacts rapidly with 5,5'-dithio-bis(2-nitrobenzoic acid) (DTNB), producing a yellow color which is measured by a microtiter plate reader set at 405 nm. The rates of cleavage of the substrate by stromelysin in the presence or absence of inhibitors are measured in a 30 min assay at ambient temperature. Solutions of the compounds in DMSO are prepared, and these are diluted at various concentrations into the assay buffer (50 mM MES/NaOH pH 6.5 with 10 mM CaCl2 and 0.2% Pluronic F-68), which is also used for dilution of the enzyme and substrate. The potency of the compounds [IC50 ] are calculated from the inhibition/inhibitor concentration data.

T1 sequence (P08254 100-272 limits assumed): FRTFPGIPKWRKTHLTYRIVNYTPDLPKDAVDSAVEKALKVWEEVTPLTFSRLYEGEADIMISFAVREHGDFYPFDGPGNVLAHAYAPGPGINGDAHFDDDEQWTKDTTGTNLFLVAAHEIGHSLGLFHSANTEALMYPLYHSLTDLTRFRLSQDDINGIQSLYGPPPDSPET

Structure (SMILES)	IC50
CC(C)C[C@H]1C(=O)N[C@H](C(=O)O)Cc2ccc(cc2)OCCCCC[C@@H]1C(=O)NO [Example 21]	39 nM
COC(=O)[C@@H]1Cc2ccc(cc2)OCCCCC[C@H](C(=O)NO)[C@@H](CC(C)C)C(=O)N1 [Example 26]	27 nM
Cc1ccc(CCC[C@H]2C(=O)N[C@H](C(=O)O)Cc3ccc(cc3)OCCCC[C@@H]2C(=O)NO)cc1 [Example 32]	6.7 nM

Same assay, conditions: Inhibitory potencies against stromelysin; 30 min assay at ambient temperature, pH 6.5; read-out: IC50

Structure (SMILES)	IC50
CNC(=O)[C@@H]1Cc2ccc(cc2)OCCC[C@H](C(=O)O)[C@@H](CC(C)C)C(=O)N1 [Example 9]	2100 nM
CC(C)C[C@H]1C(=O)N[C@H](C(=O)OCc2ccccc2)Cc2ccc(cc2)OCCCCC[C@@H]1C(=O)NO [Example 20]	92 nM
CC(C)C[C@H]1C(=O)N[C@H](C(=O)Nc2ccccc2)Cc2ccc(cc2)OCCCC[C@@H]1C(=O)NO [Example 4]	2.4 nM
CC(C)C[C@H]1C(=O)N[C@H](C(=O)c2ccc[nH]2)Cc2ccc(cc2)OCCCCC[C@@H]1C(=O)NO [Example 15]	7.2 nM
CNC(=O)[C@@H]1Cc2ccc(cc2)NC(=O)CCCC[C@H](C(=O)NO)[C@@H](CC(C)C)C(=O)N1 [Example 16]	23 nM
CC(C)C[C@H]1C(=O)N[C@H](C(=O)NC2CC2)Cc2ccc(cc2)OCCCC[C@@H]1C(=O)NO [Example 3]	5.8 nM
CNC(=O)[C@@H]1Cc2ccc(cc2)N(C(=O)OCc2ccccc2)CCCCC[C@H](C(=O)NO)[C@@H](CC(C)C)C(=O)N1 [Example 18]	0.61 nM
CCCc1ccc(CC[C@H]2C(=O)N[C@H](C(=O)NC)Cc3ccc(cc3)OCCCC[C@@H]2C(=O)NO)cc1 [Example 34]	1.5 nM
CC(C)C[C@H]1C(=O)N[C@H](C(=O)N2CCC[C@H]2C(=O)O)Cc2ccc(cc2)OCCCCC[C@@H]1C(=O)NO [Example 25]	44 nM
CNC(=O)[C@@H]1Cc2ccc(cc2)OCCCC[C@@H](C(=O)NO)[C@@H](CC(C)C)C(=O)N1 [8 syn]	570 nM
Cc1ccc(CCC[C@H]2C(=O)N[C@H](C(=O)NCCN(C)C)Cc3ccc(cc3)OCCCC[C@@H]2C(=O)NO)cc1 [Example 38]	0.56 nM
CNC(=O)[C@@H]1Cc2ccc(cc2)/C=C\CCCCC(C(=O)NO)[C@@H](CC(C)C)C(=O)N1 (stereo partly shown) [Example 13]	2.4 nM
CNC(=O)[C@@H]1Cc2ccc(cc2)OCCC[C@H](C(=O)NO)[C@@H](CC(C)C)C(=O)N1 [Example 10]	7.8 nM
CC(C)C[C@H]1C(=O)N[C@H](C(=O)NCCc2ccc(S(N)(=O)=O)cc2)Cc2ccc(cc2)OCCCC[C@@H]1C(=O)NO [Example 1]	6.9 nM
CNC(=O)[C@@H]1Cc2ccc(cc2)OCCCC[C@H](C(=O)NO)[C@@H](CC(C)C)C(=O)N1 [8 anti]	3.9 nM
CNC(=O)[C@@H]1Cc2ccc(cc2)OCCCCC[C@H](C(=O)O)[C@@H](CCCc2ccc(C)cc2)C(=O)N1 [Example 30]	20 nM
CC(C)C[C@H]1C(=O)N[C@H](C(=O)NCCc2ccccc2)Cc2ccc(cc2)OCCCC[C@@H]1C(=O)NO [Example 2]	7.2 nM
CNC(=O)[C@@H]1Cc2ccc(cc2)OCCCCC[C@H](C(=O)NO)[C@@H](CC(C)C)C(=O)N1 [Example 11]	6.1 nM
CNC(=O)[C@H]1NC(=O)[C@H](CC(C)C)[C@@H](C(=O)NO)CCCCCOc2ccc1cc2 [Example 41]	26 nM
CC(C)C[C@H]1C(=O)N[C@H](C(=O)N2CCC[C@H]2C(=O)OCc2ccccc2)Cc2ccc(cc2)OCCCCC[C@@H]1C(=O)NO [Example 24]	8.9 nM
CC(C)C[C@H]1C(=O)N[C@H](c2nc(-c3ccccc3)c[nH]2)Cc2ccc(cc2)OCCCCC[C@@H]1C(=O)NO [Example 23]	8.1 nM
CNC(=O)[C@@H]1Cc2ccc(cc2)NCCCCC[C@H](C(=O)NO)[C@@H](CC(C)C)C(=O)N1 [Example 19]	20 nM
CNC(=O)[C@@H]1Cc2ccc(cc2)OCCCCC[C@H](C(=O)NO)[C@@H](CCCc2ccc(C)cc2)C(=O)N1 [Example 31]	2.9 nM
CC(C)C[C@H]1C(=O)N[C@H](C(=O)c2ccccc2)Cc2ccc(cc2)OCCCCC[C@@H]1C(=O)NO [Example 14]	2.7 nM
CNC(=O)[C@@H]1Cc2ccc(cc2)OCCCCCC[C@H](C(=O)NO)[C@@H](CC(C)C)C(=O)N1 [Example 12]	12 nM
CC(C)C[C@H]1C(=O)N[C@H](c2nc3ccccc3[nH]2)Cc2ccc(cc2)OCCCC[C@@H]1C(=O)NO [Example 7]	3.6 nM
CC(C)C[C@H]1C(=O)N[C@H](C(=O)Nc2ccccn2)Cc2ccc(cc2)OCCCC[C@@H]1C(=O)NO [Example 6]	2.6 nM
CC(C)C[C@H]1C(=O)N[C@H](C(=O)N2CCOCC2)Cc2ccc(cc2)OCCCC[C@@H]1C(=O)NO [Example 5]	9.3 nM
